According to publication PMC10791743, “Selective CK1α degraders exert antiproliferative activity against a broad range of human cancer cell lines” (Nature Communications, 2024):

Tests used:
Type in all cases: in vitro ADME
[1] = Medium control without cells (hepatocyte stability assay); conditions: 90 min, 1 μM
[2] = Metabolic stability in cryopreserved hepatocytes, human; conditions: Pooled Human Hepatocytes, 1 μM
Description: (§1) page 34: UHPLC-MS/MS System: Chromatographic separation was performed on an Acquity UPLC BEH […] with 6500+ Qtrap system. […] software suite. The UPLC column was maintained at 55 °C. Mobile phase A was 0.1% formic acid in MilliQ H2O and Mobile phase B was 0.1% formic acid in acetonitrile. The flow rate was 0.9 […] The mass spectrometer was operated in positive-ion mode with electrospray ionization. MRM transition m/z […] plasma stability and plasma protein binding. The following MS parameters were employed for analyte measurements: ion spray voltage 5 kV, temperature 550 °C, gas 1 and gas 2 were 60, entrance potential (EP): 10 V, declustering potential (DP): 50 V, collision energy (CE): 27 V, and collision cell exit potential (CXP): 16 V. Metabolic Stability in mouse and human cryopreserved hepatocytes. 10 mM test compounds were provided by Compound Sample Group. Diluted 10 mM test compounds and 30 mM positive control compounds (7-ethoxycoumarin) to 1 mM and 3 mM with DMSO in 96-well plates. Diluted 1 mM test compounds and 3 mM positive control compounds to 100 μM and 300 μM dosing solutions with ACN. Cryopreserved cells were thawed, isolated and suspended in Incubation Medium, then diluted with pre-warmed Incubation Medium to 0.5 × 10^6cells/mL. Added 198 μL of pre-warmed cell suspensions in 96 -well plates. Transferred 125 μL of stop solution (acetonitrile containing 200 ng/mL tolbutamide and 200 ng/mL labetalol as internal standards) in a set of pre- labeled 96-well plates. Spike d 2 μL dosing solution to each well of 96 -well plates in duplicates. For T0 Samples, mix ed to achieve a homogenous suspension for about 1 min, then immediately transferred 25 μL of each sample into well containing 125 μL of ice -cold stop solution followed by mixing. Incubated all plates at 37°C in a 95% humidified incubator at 5% CO 2 to start the reactions page 35: with constant shaking at about 600 rpm. At 15, 30, 60 and 90 min, mixed samples and then transferred 25 μL of each sample at each time point to well containing 125 μL of ice -cold stop solution followed by mixing. Medium Control (MC) sample plates (labeled as T0-MC and T90- MC) were prepared at T0 and T90 by adding the same components to each well except cell suspensions. At each corresponding time point, stopped the reactions by removing the plates from incubator and mixing with 125 μL of ice-cold stop solution. Vortexed the plates immediately on a plate shaker at 500 rpm for 10 minutes. Then, centrifuge d all sample plates at 3220 x g for 20 min at 4°C. After centrifugation, 80 μL/well of supernatant in the sample plates were transferred to another set of pre-labeled 96-well plates which containing 240 μL of ultra pure water according to the plate map. Analytical plates were sealed and stored at 4°C until LC-MS/MS analysis. Thawing Medium: Williams' Medium E containing 5% fetal bovine serum and 30% Perc oll solution and other supplements. Incubation Medium: Williams' Medium E (no phenol red) containing 2 mM L-Glutamine and 25 mM HEPES. Stop Solution: Acetonitrile containing 200 ng/mL tolbutamide and labetalol as internal standards. Dilution Solution: Ultra-pure water. The remaining percents of test articles after incubation were calculated by the follow equations: Equation ( 6): Use equation of first order kinetics [NT] […] The data was […] concatenated with a reversed decoy database for evaluating False Discovery Rate (FDR). […]

[3] = Metabolic stability in cryopreserved hepatocytes, mouse; conditions: 1 μM; for Remaining: Pooled Mouse Hepatocytes
Description: as §1

## O=C1CCC(N2Cc3cc(Nc4noc5ccccc45)ccc3C2=O)C(=O)N1 (stereo not shown) [SJ001043149-3]
[1]
  Remaining: 94.5%
[2]; 15 min
  Remaining: 110.2%
[2]; 30 min
  Remaining: 88.9%
[2]; 60 min
  Remaining: 93.8%
[2]; 90 min
  Remaining: 108.9%
[3]; Pooled Mouse Hepatocytes (first result line, species inferred from Ln(Remaining))
  k: 0.0013 min⁻¹
[3]; 15 min
  Remaining: 83.3%
[3]; 30 min
  Remaining: 86.1%
[3]; 60 min
  Remaining: 89.6%
[3]; 90 min
  Remaining: 81.4%
